PubChem BioAssay (NCI)
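Following 48 hours of exposure in 96-well plates, responses at five concentrations were used to interpolate endpoints linearly. The concentration for 50% growth inhibition is given as GI50. TGI: total growth inhibition.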

What was measured:
Experiment in all cases: inhibition of tumour cell growth, NCI panel, 48 h
786-0 renal = test system: 786-0 renal
A498 renal = test system: A498 renal
A549 NSCLC = test system: A549 NSCLC
ACHN renal = test system: ACHN renal
CAKI-1 renal = test system: CAKI-1 renal
CCRF-CEM leukemia = test system: CCRF-CEM leukemia
DU-145 prostate = test system: DU-145 prostate
EKVX NSCLC = test system: EKVX NSCLC
HCC-2998 colon = test system: HCC-2998 colon
HCT-15 colon = test system: HCT-15 colon
HL-60(TB) leukemia = test system: HL-60(TB) leukemia
HOP-62 NSCLC = test system: HOP-62 NSCLC
HOP-92 NSCLC = test system: HOP-92 NSCLC
HT29 colon = test system: HT29 colon
IGROV1 ovarian = test system: IGROV1 ovarian
K-562 leukemia = test system: K-562 leukemia
KM12 colon = test system: KM12 colon
M14 melanoma = test system: M14 melanoma
MALME-3M melanoma = test system: MALME-3M melanoma
MCF7 breast = test system: MCF7 breast
MDA-MB-231 breast = test system: MDA-MB-231 breast
MDA-MB-435 = test system: MDA-MB-435
NCI-H226 lung = test system: NCI-H226 lung
NCI-H23 lung = test system: NCI-H23 lung
NCI-H460 lung = test system: NCI-H460 lung
NCI-H522 lung = test system: NCI-H522 lung
OVCAR-3 ovarian = test system: OVCAR-3 ovarian
OVCAR-4 ovarian = test system: OVCAR-4 ovarian
OVCAR-5 ovarian = test system: OVCAR-5 ovarian
PC-3 prostate = test system: PC-3 prostate
RXF 393 renal = test system: RXF 393 renal
SF-268 CNS = test system: SF-268 CNS
SF-295 CNS = test system: SF-295 CNS
SF-539 CNS = test system: SF-539 CNS
SK-MEL-2 melanoma = test system: SK-MEL-2 melanoma
SK-MEL-28 melanoma = test system: SK-MEL-28 melanoma
SK-MEL-5 melanoma = test system: SK-MEL-5 melanoma
SK-OV-3 ovarian = test system: SK-OV-3 ovarian
SN12C renal = test system: SN12C renal
SNB-19 CNS = test system: SNB-19 CNS
SNB-75 CNS = test system: SNB-75 CNS
SW-620 colon = test system: SW-620 colon
TK-10 renal = test system: TK-10 renal
U251 CNS = test system: U251 CNS
UACC-257 melanoma = test system: UACC-257 melanoma
UACC-62 melanoma = test system: UACC-62 melanoma
UO-31 renal = test system: UO-31 renal

For `COc1ccc2c(c1)c(-c1nc(-c3cn(C)c4ccncc34)cs1)cn2C`, which GI50 (786-0 renal) is on record?
The GI50 was 1.6 µM.

What about the TGI (786-0 renal) of the same molecule?
Its TGI is 3.15 µM.

What about the GI50 (A498 renal) of the same molecule?
Its GI50 is 6.59 µM.

And the TGI (A498 renal)?
Its TGI is 20.4 µM.

What about the GI50 (A549 NSCLC) of the same molecule?
Its GI50 is 1.93 µM.

And the TGI (A549 NSCLC)?
The TGI was 3.99 µM.

And the GI50 (ACHN renal)?
Its GI50 is 1.73 µM.

What about the TGI (ACHN renal) of the same molecule?
The TGI was 3.11 µM.

What about the GI50 (CAKI-1 renal) of the same molecule?
The GI50 was 1.8 µM.

And the TGI (CAKI-1 renal)?
Its TGI is 3.26 µM.

What about the GI50 (CCRF-CEM leukemia) of the same molecule?
The GI50 was 2.15 µM.

And the TGI (CCRF-CEM leukemia)?
Its TGI is 6.05 µM.

And the GI50 (DU-145 prostate)?
The GI50 was 1.78 µM.

What about the TGI (DU-145 prostate) of the same molecule?
The TGI was 3.34 µM.

What about the GI50 (EKVX NSCLC) of the same molecule?
The GI50 was 1.77 µM.

And the TGI (EKVX NSCLC)?
Its TGI is 3.56 µM.

And the GI50 (HCC-2998 colon)?
Its GI50 is 1.89 µM.

And the TGI (HCC-2998 colon)?
The TGI was 3.38 µM.

What about the GI50 (HCT-15 colon) of the same molecule?
Its GI50 is 1.54 µM.

And the TGI (HCT-15 colon)?
The TGI was 3.33 µM.

What about the GI50 (HL-60(TB) leukemia) of the same molecule?
The GI50 was 1.96 µM.

And the TGI (HL-60(TB) leukemia)?
The TGI was 4.49 µM.

And the GI50 (HOP-62 NSCLC)?
The GI50 was 1.9 µM.

What about the TGI (HOP-62 NSCLC) of the same molecule?
Its TGI is 3.62 µM.

What about the GI50 (HOP-92 NSCLC) of the same molecule?
The GI50 was 1.96 µM.

And the TGI (HOP-92 NSCLC)?
Its TGI is 3.79 µM.

And the GI50 (HT29 colon)?
Its GI50 is 1.43 µM.

And the TGI (HT29 colon)?
The TGI was 3.1 µM.

What about the GI50 (IGROV1 ovarian) of the same molecule?
The GI50 was 1.92 µM.

And the TGI (IGROV1 ovarian)?
The TGI was 3.65 µM.

And the GI50 (K-562 leukemia)?
The GI50 was 1.9 µM.

And the TGI (K-562 leukemia)?
The TGI was 4.2 µM.

And the GI50 (KM12 colon)?
The GI50 was 1.84 µM.

What about the TGI (KM12 colon) of the same molecule?
Its TGI is 3.41 µM.

What about the GI50 (M14 melanoma) of the same molecule?
Its GI50 is 1.7 µM.

And the TGI (M14 melanoma)?
The TGI was 3.29 µM.

And the GI50 (MALME-3M melanoma)?
Its GI50 is 2.02 µM.

And the TGI (MALME-3M melanoma)?
The TGI was 3.58 µM.

What about the GI50 (MCF7 breast) of the same molecule?
Its GI50 is 1.7 µM.

And the TGI (MCF7 breast)?
The TGI was 3.34 µM.

What about the GI50 (MDA-MB-231 breast) of the same molecule?
The GI50 was 1.83 µM.

And the TGI (MDA-MB-231 breast)?
Its TGI is 3.53 µM.

And the GI50 (MDA-MB-435)?
The GI50 was 1.59 µM.

And the TGI (MDA-MB-435)?
The TGI was 2.97 µM.

And the GI50 (NCI-H226 lung)?
Its GI50 is 1.83 µM.

And the TGI (NCI-H226 lung)?
Its TGI is 3.75 µM.

And the GI50 (NCI-H23 lung)?
Its GI50 is 1.81 µM.

And the TGI (NCI-H23 lung)?
Its TGI is 3.45 µM.

What about the GI50 (NCI-H460 lung) of the same molecule?
Its GI50 is 1.94 µM.

And the TGI (NCI-H460 lung)?
The TGI was 3.68 µM.

And the GI50 (NCI-H522 lung)?
The GI50 was 1.77 µM.

What about the TGI (NCI-H522 lung) of the same molecule?
Its TGI is 3.26 µM.

And the GI50 (OVCAR-3 ovarian)?
The GI50 was 1.99 µM.

And the TGI (OVCAR-3 ovarian)?
The TGI was 3.77 µM.

And the GI50 (OVCAR-4 ovarian)?
Its GI50 is 2.1 µM.

And the TGI (OVCAR-4 ovarian)?
The TGI was 4.62 µM.

What about the GI50 (OVCAR-5 ovarian) of the same molecule?
Its GI50 is 1.81 µM.

And the TGI (OVCAR-5 ovarian)?
Its TGI is 3.53 µM.

And the GI50 (PC-3 prostate)?
Its GI50 is 1.89 µM.

And the TGI (PC-3 prostate)?
Its TGI is 4.79 µM.

And the GI50 (RXF 393 renal)?
Its GI50 is 1.71 µM.

And the TGI (RXF 393 renal)?
Its TGI is 3.21 µM.

What about the GI50 (SF-268 CNS) of the same molecule?
Its GI50 is 2.07 µM.

What about the TGI (SF-268 CNS) of the same molecule?
The TGI was 4.4 µM.

What about the GI50 (SF-295 CNS) of the same molecule?
Its GI50 is 1.66 µM.

And the TGI (SF-295 CNS)?
The TGI was 3.16 µM.

What about the GI50 (SF-539 CNS) of the same molecule?
The GI50 was 1.77 µM.

What about the TGI (SF-539 CNS) of the same molecule?
The TGI was 3.25 µM.

What about the GI50 (SK-MEL-2 melanoma) of the same molecule?
The GI50 was 1.76 µM.

And the TGI (SK-MEL-2 melanoma)?
Its TGI is 3.28 µM.

What about the GI50 (SK-MEL-28 melanoma) of the same molecule?
The GI50 was 1.71 µM.

And the TGI (SK-MEL-28 melanoma)?
Its TGI is 3.15 µM.

And the GI50 (SK-MEL-5 melanoma)?
The GI50 was 1.52 µM.

What about the TGI (SK-MEL-5 melanoma) of the same molecule?
Its TGI is 2.85 µM.

What about the GI50 (SK-OV-3 ovarian) of the same molecule?
Its GI50 is 2.52 µM.

What about the TGI (SK-OV-3 ovarian) of the same molecule?
The TGI was 5.12 µM.

What about the GI50 (SN12C renal) of the same molecule?
Its GI50 is 1.85 µM.

And the TGI (SN12C renal)?
Its TGI is 3.49 µM.

What about the GI50 (SNB-19 CNS) of the same molecule?
The GI50 was 2.26 µM.

What about the TGI (SNB-19 CNS) of the same molecule?
The TGI was 4.73 µM.

What about the GI50 (SNB-75 CNS) of the same molecule?
The GI50 was 14.7 µM.

And the TGI (SNB-75 CNS)?
The TGI was 28 µM.

What about the GI50 (SW-620 colon) of the same molecule?
Its GI50 is 1.96 µM.

And the TGI (SW-620 colon)?
The TGI was 3.73 µM.

What about the GI50 (TK-10 renal) of the same molecule?
Its GI50 is 1.49 µM.

What about the TGI (TK-10 renal) of the same molecule?
The TGI was 3.06 µM.

What about the GI50 (U251 CNS) of the same molecule?
The GI50 was 1.85 µM.

What about the TGI (U251 CNS) of the same molecule?
Its TGI is 3.4 µM.

And the GI50 (UACC-257 melanoma)?
Its GI50 is 1.9 µM.

And the TGI (UACC-257 melanoma)?
Its TGI is 3.6 µM.

What about the GI50 (UACC-62 melanoma) of the same molecule?
Its GI50 is 2.09 µM.

And the TGI (UACC-62 melanoma)?
Its TGI is 4.78 µM.

What about the GI50 (UO-31 renal) of the same molecule?
Its GI50 is 1.58 µM.

What about the TGI (UO-31 renal) of the same molecule?
The TGI was 3.17 µM.
